Literature values, collected in US9636300B2, “Racecadotril lipid compositions” (JOHNSON & JOHNSON CONSUMER INC., priority 2013, dated 2017).

Settings: room temperature conditions

## CC(=O)SCC(Cc1ccccc1)C(=O)NCC(=O)OCc1ccccc1 (stereo not shown) [Racecadotril]
  water solubility: about 10 micrograms/ml
